Results from PubChem BioAssay AID179 (DTP/NCI, 2004).
Calls of active or inactive are those of the source.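 The calls were made as follows: active = compounds giving half or more protection of infected cells from virus-caused growth loss, again on retest; inactive = the rest.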

Test system: CEM cells HIV-1 protection, formazan growth assay
Test: NCI AIDS Antiviral Assay
Conditions: for IC50: measured here: growth of uninfected CEM cells
Summary of the method: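 CEM (human) cells, HIV-1 infected vs uninfected, 5-point dosing, formazan growth read-out. Retest threshold 50% protection.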

With CC(C)(C)OC(=O)N1CCCC1C(=O)N1CCCC1C(=O)Oc1ccccc1 (stereo unspecified) the EC50 was > 67.6 µM and the IC50 was > 67.6 µM.
For O=[N+]([O-])c1ccc(C(O)(C#CCN2CCCC2)c2ccccc2)cc1 (stereo unspecified), the EC50 was > 200 µM and the IC50 was > 100 µM.
CCOC(=O)NC(Nc1ccc(F)cc1)(C(=O)OCC)C(F)(F)F (stereo unspecified) was tested, and the outcome was “inactive”.
In the case of O=c1ccc2nc3cc(Cl)ccc3sc-2c1, the EC50 is reported as > 8.13 µM and the IC50 is reported as 2.19 µM.
With Cc1ccnc(NC(=O)NC2CCCCC2)c1 the EC50 was > 200 µM and the IC50 was 145 µM.
COC(=O)Cc1nn2c(nc1=O)sc1ccc3ccccc3c12 was tested, and the EC50 was > 69.2 µM and the IC50 was > 69.2 µM.
Cc1cn([C@H]2C[C@@H]3[C@@H](COC(CCC[Se]c4ccccc4)N3O)O2)c(=O)[nH]c1=O (stereo partly specified) showed an EC50 of 13.2 µM and an IC50 of 117 µM.
O=C(NC(O)C(Cl)(Cl)Cl)NC(O)C(Cl)(Cl)Cl (stereo unspecified) was tested, and the EC50 was > 200 µM and the IC50 was > 200 µM.
In the case of Cc1ccc(NC(=O)C(=O)C(C(=O)c2ccc3ccccc3c2)C2OC(=O)c3ccccc32)c(C)c1 (stereo unspecified), the EC50 is reported as > 75.9 µM and the IC50 is reported as 21.4 µM.
In the case of Cc1ccc2c(c1)N=Cc1ccccc1O2, the EC50 is reported as > 174 µM and the IC50 is reported as 10.7 µM.
CC[C@@H]1CC[C@@H]2[C@H](CC[C@]3(C)[C@@H](OC(C)=O)CC[C@@H]23)[C@H]1C(=O)OC was tested, and the EC50 was > 200 µM and the IC50 was 24.5 µM.
In the case of CCOC(=O)C1=C(C)NC(C)=C(C(=O)OCC)C1c1ccc([N+](=O)[O-])s1, the outcome is reported as “inactive”.
With Cc1oc2c(c1C)S(=O)(=O)C(C#N)C(c1ccccc1)N2 (stereo unspecified) the EC50 was > 200 µM and the IC50 was 126 µM.
COC(=O)c1cc2cc(OC)c(OC)cc2cc(C(=O)OC)c1=O was tested, and the EC50 was > 10.7 µM and the IC50 was > 10.7 µM.
In the case of CN(C)C1C(=O)C(C(=O)NC[N+]23CCO[B-]2(c2ccc(Cl)cc2)OCC3)=C(O)C2(O)C(=O)C3=C(O)c4c(O)cccc4C(C)(O)C3CC12 (stereo unspecified), the EC50 is reported as > 27.5 µM and the IC50 is reported as > 27.5 µM.
CCNc1nc(NC(C)C)nc(-c2ccncc2)n1 was tested, and the EC50 was > 200 µM and the IC50 was 138 µM.
O=C(NN1C(=O)C=CC1=O)c1ccccc1Nc1ccccc1C(=O)NN1C(=O)C=CC1=O gave an EC50 of 63.1 µM and an IC50 of 191 µM.
N#CC1C(=O)N(c2ccccc2)NC12OC(=O)c1ccncc12 (stereo unspecified) was tested, and the EC50 was > 200 µM and the IC50 was > 200 µM.
In the case of COC(=O)/C=C/N1CC1, the EC50 is reported as > 200 µM and the IC50 is reported as > 200 µM.
With COc1cc(-c2cc(O)c(-c3ccc4ccccc4n3)c(=O)[nH]2)cc(OC)c1OC the EC50 was > 0.933 µM and the IC50 was > 0.933 µM.
With O=C1CC(c2cccc(Br)c2)n2cccc21 (stereo unspecified) the outcome was “inactive”.
NC(=O)C1C(=O)Oc2cccnc21 (stereo unspecified) was tested, and the outcome was “inactive”.
In the case of O=C1CN(c2ccccc2)CC(=O)N2Cc3ccccc3CN12, the EC50 is reported as > 44.7 µM and the IC50 is reported as > 44.7 µM.
With C=CCC1(c2ccc(OC)cc2)C=CC(=O)CC1 (stereo unspecified) the EC50 was > 282 µM and the IC50 was 79.4 µM.
With COc1ccc2c(c1)CCCN1Cc3ccccc3CC21 (stereo unspecified) the EC50 was > 200 µM and the IC50 was 141 µM.
In the case of N#C/C(=C\c1cccc(F)c1)C(=O)c1ccccc1, the EC50 is reported as > 39.8 µM and the IC50 is reported as > 39.8 µM.
With CN1CCCS/C1=C1/SC(=S)N(c2ccccc2)C1=O the EC50 was > 30.9 µM and the IC50 was > 30.9 µM.
C[n+]1c(/C=C/c2ccc3c(c2)OCO3)ccc2ccccc21 was tested, and the EC50 was > 200 µM and the IC50 was 5.89 µM.
With O=c1[nH]c(-c2ccccc2)nc2cc([N+](=O)[O-])c(/C(Cl)=C/c3ccccc3)cc12 the outcome was “inactive”.
For CCCCCCCCCCCC(=O)OCC(O)CO (stereo unspecified), the EC50 was > 100 µM and the IC50 was 51.3 µM.
In the case of C1CCC(CC[N+]23CC[N+](CCC4CCCC4)(CC2)C3)C1, the EC50 is reported as > 692 µM and the IC50 is reported as 347 µM.
For CCOC(=O)c1sc(SSc2nc(C)c(C(=O)OCC)s2)nc1C, the EC50 was > 200 µM and the IC50 was > 200 µM.
For Cc1cc(O)c(C=NC(=S)C(N)=S)c(=O)o1, the EC50 was > 200 µM and the IC50 was 41.7 µM.
For O=[N+]([O-])c1ccc(CS(=O)(=O)c2ccccc2)cc1, the outcome was “inactive”.
Cc1ccc(S(=O)(=O)Oc2nc3nc4ccccc4nc3nc2OS(=O)(=O)c2ccc(C)cc2)cc1 was tested, and the EC50 was > 200 µM and the IC50 was 102 µM.
CSc1ccc(Nc2cc(=O)[nH]c(=O)[nH]2)cc1 was tested, and the EC50 was > 200 µM and the IC50 was > 200 µM.
For COc1ccc(C2=C/C(=C/c3ccc(N(CCC#N)CCC#N)cc3)C(=O)O2)cc1, the EC50 was > 13.2 µM and the IC50 was > 13.2 µM.
In the case of Cc1ccc(S(=O)(=O)N2CCC2c2ccccc2)cc1 (stereo unspecified), the outcome is reported as “inactive”.
With O=C1N[C@@H]2C(=C[C@H](O)[C@@H](O)[C@H]2O)c2cc3c(c(O)c21)OCO3 the outcome was “inactive”.
In the case of Cc1cccc(C(C)C)c1NC(=O)C(=O)C(C(=O)c1ccccc1F)C1OC(=O)c2ccccc21 (stereo unspecified), the EC50 is reported as > 200 µM and the IC50 is reported as 15.8 µM.
For COc1cc(Br)c(CCC#N)cc1OC, the EC50 was > 347 µM and the IC50 was 37.2 µM.
With CC(C)c1cc(=O)[nH]c2cc(N)ccc12 the EC50 was > 200 µM and the IC50 was > 200 µM.
With O=C1C(CN2CCCC2)CCCC1CN1CCCC1 (stereo unspecified) the outcome was “inactive”.
CC1=Nc2ccccc2S/C1=C1/C=NC(=NC#N)N=C1C(=O)Nc1cccc(Cl)c1 was tested, and the EC50 was > 83.2 µM and the IC50 was > 83.2 µM.
O=C(O)CCCC[n+]1ccccc1 was tested, and the EC50 was > 200 µM and the IC50 was > 200 µM.
In the case of N#C/C(=C\c1ccc(F)cc1)c1nc(-c2cc3ccccc3oc2=O)cs1, the outcome is reported as “inactive”.
CN(C)CCCNC(=O)c1nc(NC(=O)c2nc(NC(=O)c3nc(NC(=O)c4ccc(C(=O)Nc5cn(C)c(C(=O)Nc6cn(C)c(C(=O)Nc7cn(C)c(C(=O)NCCCN(C)C)n7)n6)n5)cc4)cn3C)cn2C)cn1C was tested, and the EC50 was > 50.1 µM and the IC50 was > 50.1 µM.
O=[N+]([O-])c1ccc(C2CC(c3ccc(NCc4nc5ccccc5[nH]4)cc3)=NO2)cc1 (stereo unspecified) was tested, and the EC50 was > 9.12 µM and the IC50 was > 9.12 µM.
CCOc1ncn(-c2ccc(NC(=S)NC34CC5CC(CC(C5)C3)C4)cc2)n1 gave an EC50 of 12 µM and an IC50 of 67.6 µM.
Cc1ccccc1C1OC1C(=O)c1ccccc1N (stereo unspecified) was tested, and the EC50 was > 200 µM and the IC50 was 46.8 µM.
For CC(=O)O[C@H]1CC[C@H]2[C@@H]3CCc4cc(O)c(I)cc4[C@H]3CC[C@]12C, the EC50 was > 200 µM and the IC50 was 12 µM.
In the case of Cc1ccc(N=Nc2c(O)c3ccccc3[nH]c2=O)c(S(=O)(=O)N(C)C)c1, the EC50 is reported as > 200 µM and the IC50 is reported as > 200 µM.
With O=c1ncc2ccc([N+](=O)[O-])cc2[nH]1 the EC50 was > 186 µM and the IC50 was 148 µM.
For COC(=O)c1c(CC(Cc2ccc3c(c2)CCCC3)C(=O)OC)ccc2c1CCCC2 (stereo unspecified), the EC50 was > 200 µM and the IC50 was 95.5 µM.
In the case of COCOc1ccc(Cn2c(=O)n(C)c(=O)c3c2ncn3C)cc1[N+](=O)[O-], the EC50 is reported as > 50.1 µM and the IC50 is reported as > 50.1 µM.
COC1CC(OC2C(C)OC(OC3C(C)OC(OC4C(C)OC(O[C@H]5CC[C@@]6(C)C(=CC[C@]7(O)[C@@H]6C[C@@H](OC(=O)/C=C(\C)C(C)C)[C@@]6(C)[C@]7(O)CC[C@@]6(O)C(C)=O)C5)CC4OC)CC3OC)CC2OC)OC(C)C1O (stereo partly specified) was tested, and the EC50 was > 200 µM and the IC50 was 27.5 µM.
For C=C(Cc1ccc(O)cc1)C(=C)Cc1ccc(O)cc1, the EC50 was > 200 µM and the IC50 was 69.2 µM.
For Clc1nc(Cl)nc(N2CCCc3ccccc32)n1, the EC50 was > 200 µM and the IC50 was 3.89 µM.
For CN(C)CCN1C(=O)CC(c2ccccc2)Sc2ccccc21 (stereo unspecified), the EC50 was > 245 µM and the IC50 was > 245 µM.
In the case of COc1ccc(-c2onc(-c3c(C)cc(C)cc3C)c2C2=NCCCN2)cc1, the EC50 is reported as > 50.1 µM and the IC50 is reported as > 50.1 µM.
With O=c1[nH]c(=O)n(C2CC(O)C(CO)O2)cc1NN=NCCc1ccccc1 (stereo unspecified) the EC50 was > 200 µM and the IC50 was > 200 µM.
C=CCn1c(-c2ccc(-c3cs/c(=N\N=O)n3CC=C)cc2)cs/c1=N\N=O was tested, and the EC50 was > 100 µM and the IC50 was > 100 µM.
With COc1ccc(N2C(=O)C3c4[nH]c5ccccc5c4C4CCCCCCCC4C3C2=O)cc1 (stereo unspecified) the EC50 was > 200 µM and the IC50 was 81.3 µM.
